Molecules are shown by their SMILES.

Data set [1] is described as follows: Dissolution of barium sulfate suspension (GFAAS). The note with it: for BaSO4 dissolved: 30 minutes. As to the method: First, a suspension of BaSO4 in pH 8 NaHCO3 was formed by combining Ba(NO3)2 (4.53 mM) with excess Na2SO4 (13.48 mM), simulating the mixing of incompatible waters that produces BaSO4 scale in petroleum operations. The resulting BaSO4 suspension was treated with ligand (5 mM), and the amount of dissolved Ba^2+ was measured by GFAAS.
More specifically. BaSO4 dissolution experiments at pH 8 were performed in NaHCO3 (1 M, pH=7.9-8.0); dissolution studies at pH 11 were performed in Na2CO3 (1 M, pH adjusted to 10.98 using concentrated HCl). […] The concentration of the DOTA stock solution was calculated from the mass of the ligand used (255.5 mg). A solution of Na2SO4 (293 mM) was prepared in water. The barium source for this experiment was an ICP standard solution of Ba(NO3)2 (72.99 mM; 10023 μg/mL) in 2% v/v HNO3.
Dissolution studies were carried out in 2 mL borosilicate vials equipped with identical magnetic stir bars (6.4×3 mm). Each BaSO4 suspension was prepared independently by mixing Ba(NO3)2 and Na2SO4 in 1 M NaHCO3 or Na2CO3 to give final concentrations of 4.53 mM (621,426 μg/L) and 13.48 mM, respectively. Dissolution was initiated by the addition of an aliquot of ligand (5 mM final concentration, 1.1 equiv with respect to Ba^2+) to each suspension. Controls (pH 8) received an aliquot of water instead of ligand. The suspensions were stirred at room temperature (22±1° C.) at a rate of 550 RPM. At time points of 5 min (pH 11 only), 10 min, 20 min, and 30 min, the suspensions were filtered through nylon syringe filters (either 0.2 μm or 0.22 μm), and the filtrates were analyzed as described below. The dissolution experiments were performed in triplicate at every time point for each ligand except DOTA, for which 6 replicates were run for 20 min and 30 min time points at pH 8.
The filtered samples were diluted 6565-fold (65×101) with water and analyzed for barium content by GFAAS using the furnace method and instrument parameters discussed earlier above. Standards containing both ligand and barium at the same concentrations employed in the dissolution studies were prepared in either NaHCO3 (pH 8) or Na2CO3 (pH 11); water was substituted for Na2SO4. […] Water was used as the diluent. Following calibration, each sample was analyzed in triplicate and averaged. After the analysis of every three samples, a single measurement of water was made to ensure that there was no carryover of barium. After every three (pH 11) or six (pH 8) samples were analyzed, an independently-prepared Ba-L standard was analyzed a maximum of two times as a quality control check. If the measurement was not within ±10% of the known concentration of barium, the instrument was re-calibrated and the data between the failed calibration check and the previous calibration check was excluded. Data from each time point were averaged and the results are reported as the percentage of barium dissolved. The errors given correspond to 1 standard deviation.

Data set [2] can be described thus: Thermodynamic stability constants of Ba^2+ complexes by pH-potentiometry. It counts as binding. Particulars: for pBa (−log [M^2+]free): [M^2+] = 10^−6M, [L] = 10^−5M; for pBa (−log [M^2+]free) / log KBaH2L / log KBaHL / log KBaL / major species present at pH 7.4 in the presence of Ba^2+: 25° C.; for pBa (−log [M^2+]free) / log K′Ba (conditional stability constant) / log KBaH2L / log KBaHL / log KBaL: I = 0.1M KCl; for log K′Ba (conditional stability constant): pH 7.4, 25° C., calculated from protonation and stability constants; for log KBaH2L / log KBaHL / log KBaL: pH-potentiometry; for major species present at pH 7.4 in the presence of Ba^2+: speciation, [Ba^2+]tot=[L]tot=1.0 mM, I=0.1 M KCl. As to the method:
Potentiometric measurements were carried out using a titrator equipped with a combination electrode and an exchange unit with an automatic burette (10 mL). The titration vessel was fitted with a removable glass cell (˜70 mL) and was thermostated at 25° C. using a circulating water bath. CO2 was excluded from the vessel prior to and during the titrations using a small positive pressure of Ar that was passed through a solution of 30 wt % KOH. […] Hydrochloric acid (0.1 M) was standardized against freshly prepared KOH. […] Before every titration, the electrode was calibrated in terms of hydrogen ion concentration by titrating a solution of standardized HCl (5 mM) containing supporting electrolyte (95 mM) with standardized KOH (2 mL).
ICP standards of calcium, strontium, and barium in dilute HNO3 were employed in the titrations. […] Stability constants were measured for the alkaline earth complexes of macropa^2− and macropaquin^2− by adding standardized KOH to a solution (20 mL) containing ligand (0.02 mmol), metal (0.02 mmol), 1 M KCl (1.9 mmol), and a portion of 0.1 M HCl sufficient to bring the total acid content (HCl+HNO3) to 0.1 mmol. The titration method employed either a 0.1 mV/min or 0.2 mV/min drift limit with a maximum wait time of 300 seconds between addition of base and measurement. […] These pH ranges reflect the portion of the titration curves in which metal binding is occurring. Using the protonation constants measured for each ligand, the stability constants (Equations 2-4, below) were calculated from the average of at least 3 independent titrations using appropriate software. Proton concentration was admitted as a refineable parameter. […] The errors given for the stability constants correspond to one standard deviation.
The alkaline earth stability constants for macroquin-SO3^4− were determined using a system in which each ligand titration was paired with a ligand-metal titration. These pairwise titrations permitted the ligand concentration for the metal-ligand titrations to be known with reasonable certainty from the refinement of the ligand-only titrations. […] The same titration method was employed as described above for macropa^2− and macropaquin^2−. […] Stability constants were calculated as described above.
Log conditional constants (log K′) of the alkaline earth complexes at pH 7.4 were calculated using the experimentally determined protonation and stability constants. These constants are expressed by the following equation:
In the above equation, [(ML)′]=[ML]+[MHL]+[MH2L], and [HnL]=[L], [HL], [H2L] . . . [HnL].

Take `O=C(O)CN1CCN(CC(=O)O)CCN(CC(=O)O)CCN(CC(=O)O)CC1` [DOTA, reference compound]: the BaSO4 dissolved in data set [1] (pH 8, RT, 5 mM ligand) was 40%. Moreover, in data set [1] (pH 11, 30 min), the BaSO4 dissolution was 75%. In addition, the “pBa (−log [M^2+]free)” value in data set [2] (pH 7.4) came to 6.76. Also, the “log K′Ba (conditional stability constant)” value in data set [2] is recorded as 5.72.

Regarding `O=S(=O)(O)c1ccc(O)c2nc(CN3CCOCCOCCN(Cc4ccc5c(S(=O)(=O)O)ccc(O)c5n4)CCOCCOCC3)ccc12` [macroquin-SO3, 2,2′-((1,4,10,13-tetraoxa-7,16-diazacyclooctadecane-7,16-diyl)bis(methylene))bis(8-hydroxyquinoline-5-sulfonic acid)], the “pBa (−log [M^2+]free)” value in data set [2] (pH 7.4) is reported as 9.72. Besides, in data set [2], the “log K′Ba (conditional stability constant)” value is 8.76, the “log KBaH2L” value is on record as 7.80(2), the “log KBaHL” value is recorded as 9.24(7) and the “log KBaL” value came out at 10.44. Also, the “major species present at pH 7.4 in the presence of Ba^2+” value in data set [2] was “MH2L”.

Molecule `O=C(O)c1cccc(CN2CCOCCOCCN(Cc3ccc4cccc(O)c4n3)CCOCCOCC2)n1` [macropaquin, 6-((16-((8-hydroxyquinolin-2-yl)methyl)-1,4,10,13-tetraoxa-7,16-diazacyclooctadecan-7-yl)methyl)picolinic acid] came in with a BaSO4 dissolved in data set [1] (pH 8, RT, 5 mM ligand) of 95%. The “pBa (−log [M^2+]free)” value in data set [2] (pH 7.4) is reported as 11.01. In data set [2], the “log K′Ba (conditional stability constant)” value is 10.05, the “log KBaH2L” value was 3.28(2), the “log KBaHL” value was 9.76(2) and the “log KBaL” value came out at 10.87. For the same molecule, the “major species present at pH 7.4 in the presence of Ba^2+” value in data set [2] is reported as “MHL”.

Regarding `O=C(O)c1cccc(CN2CCOCCOCCN(Cc3cccc(C(=O)O)n3)CCOCCOCC2)n1` [macropa, 6,6-((1,4,10,13-tetraoxa-7,16-diazacyclooctadecane-7,16-diyl)bis(methylene))dipicolinic acid], the BaSO4 solubilized in data set [1] (pH 8, RT, 5 mM ligand, 10 minutes) is 78%. The BaSO4 dissolved entry in data set [1] (pH 8, RT, 5 mM ligand) is “complete dissolution”. In data set [1] (pH 11, 5 min), this molecule gave a BaSO4 solubilized greater than 95%. In data set [2], the “log KBaL lower than that for DOTA by” value worked out at 0.64 log units, the “log K′Ba (conditional stability constant)” value is given as 10.74, the “log KBaH2L” value is reported as 2.49(7) and the “log KBaHL” value was 3.76(2). Besides, the “log KBaL” value in data set [2] is recorded as 11.11. For the same molecule, in data set [2] (pH 7.4), the “pBa (−log [M^2+]free)” value amounted to 11.69; the “log K′Ba greater than those for DOTA and DTPA by” value is reported as 5-6 orders of magnitude; the “selectivity for Ba^2+ over Ca^2+ (ratio of pM values)” value was 1.79 fold; the “selectivity for Ba^2+ over Sr^2+ (ratio of pM values)” value is 1.17 fold. Besides, in data set [2] (pH 4.0, speciation), the “Ba^2+ bound by ligand” value came out at 90%. Also, the “Ba^2+ complexed by ligand” value in data set [2] (pH 5.1, speciation) stood at 99%.
